# Literature values as cited in patent publication US11975013B2, “Stable formulations comprising thiotepa” (SHORLA PHARMA LTD., priority 2020, dated 2024).
# Details: reconstituted in water, stored longer than five days; EP 0 419 890
structure (smiles),measurement,value
"S=P(N1CC1)(N1CC1)N1CC1 [thiotepa, N,N′,N″-triethylenethiophosphoramide]",potency on storage (in words),substantial loss of potency
